Values of other authors in patent US7709647B2, “Tetrahydroquinoline cannabinoid receptor modulators” (Bristol-Myers Squibb Company, priority 2005, dated 2010).

How the values were obtained:
[1] = chronic administration for two weeks
human subjects = details: 16 week trial period, published Phase IIb data

SMILES | body weight [1] | body weight (human subjects)
Cc1c(C(=O)NN2CCCCC2)nn(-c2ccc(Cl)cc2Cl)c1-c1ccc(I)cc1 [AM-251] | substantial body weight reduction | –
Cc1c(C(=O)NN2CCCCC2)nn(-c2ccc(Cl)cc2Cl)c1-c1ccc(Cl)cc1 [SR-141716] | – | dose-dependently reduced body weight
